In brackets after ≈: the same amount, converted by molar mass. Like-named read-outs stand apart in the source and are kept apart here.
Legend:
[1] = In vitro test of inhibition of the evolution of odors on natural sweat (olfactory evaluation by jury of experts); design: species or system human; details: for average % of reduction in the unpleasantness of the odor (T18 h, T24 h) / average % of reduction in the odor intensity (T18 h, T24 h): 37° C.; for average % of reduction in the unpleasantness of the odor (T18 h, T24 h): hedonistic grade relative to control sweat; for average % of reduction in the odor intensity (T18 h, T24 h): relative to control sweat without deodorant agent; for deodorant efficacy (reduction in the intensity and unpleasantness of the odor), in words: natural sweat, for at least 24 h
Description: A test of inhibition of the evolution of odors was carried out on natural sweat. This test is carried out by adding the deodorant agent to fresh sweat, and then in carrying out an olfactory evaluation by means of a jury of experts after incubation at 37° C. for 18 hours and 24 hours. Thus, underarm sweat was collected in a sauna from several human models and combined to form a sample of sweat. In order to obtain the characteristic nauseating odor of sweat, before introducing the active substance, this sample of sweat was incubated for 18 hours at a temperature of 37° C. […] The active substance was then introduced into each of the flasks to be tested.
1) After incubation for 18 hours, the odor of each flask was evaluated.
The odor was evaluated on the basis of 2 criteria:
(a)—overall intensity (grading from 0 to 4):
(b)—the hedonistic assessment (grading from 0 to 6):
2) The flasks were reincubated in an oven at 37° C. for 6 h, the total desired incubation time being 24 h. Evaluation of the odor of each flask was then repeated as before.

Aspergillus niger = experiment: Microbiostatic activity (MIC) by dilutions in agar medium; assay type: cell-based
Description: (§1) Each of the 3 compounds was presented in the form of an ethanolic solution. 100 μl of the ethanolic solution were added to 1.9 ml of agar culture heated beyond the melting point to 45° C. (medium chosen as a function of the nutrient requirements of the test strain). After stirring with a Vortex machine, successive dilutions, in geometrical progression by a factor of 2, of the solution obtained were carried out using agar culture medium heated beyond its melting point to 45° C. 1 ml of each dilution was introduced into the wells of a microplate (flask, 24 wells). Four μl of microbial suspension were placed at the surface of the agar medium. Two control wells were also prepared: 100 μl H2O+1.9 ml of culture medium (growth control), […] ethanol+1.9 ml of culture medium (control of non-toxicity of the ethanol diluted to 1/20).
(§2) After incubation under conditions (temperature, atmosphere and duration) dependent on the test strain, the minimum inhibitory concentration (MIC) was given by the lowest concentration of product which inhibited the microbial growth. The results, shown below, are expressed in μg/ml.
(§3) For the control cupules (H2O or ethanol), the observation of microbial growth made it possible to exclude the presence of a placebo effect.

Corynebacterium xerosis = experiment: as above; assay type: cell-based; details: for MIC: Corynebacterium xerosis
Description: as §1, §2, §3

Pityrosporum ovale = experiment: as above; assay type: cell-based; details: Malassezia furfur
Description: as §1, §2, §3

Propionibacterium acnes = experiment: as above; assay type: cell-based; details: Cutibacterium acnes
Description: as §1, §2, §3

Staphylococcus aureus = experiment: as above; assay type: cell-based
Description: as §1, §2, §3

Staphylococcus epidermis = experiment: as above; assay type: cell-based
Description: as §1, §2, §3

[2] = cited from earlier work
[3] = Pityrosporum ovale, agar dilution, read-out: MIC
[4] = Propionibacterium acnes, agar dilution, read-out: MIC
[5] = Staphylococcus epidermis, agar dilution, read-out: MIC

| MIC (Aspergillus niger; agar dilution, read-out: MIC) [µg/mL] | MIC (Corynebacterium xerosis; agar dilution, read-out: MIC) [µg/mL] | MIC (Pityrosporum ovale; [3]) [µg/mL] | MIC (Propionibacterium acnes; [4]) [µg/mL] | MIC (Staphylococcus aureus; agar dilution, read-out: MIC) [µg/mL] | MIC (Staphylococcus epidermis; [5]) [µg/mL] | SMILES | average % of reduction in the unpleasantness of the odor (T18 h, T24 h) ([1]; 1 mg/ml of sweat) [%] | average % of reduction in the odor intensity (T18 h, T24 h) ([1]; 1 mg/ml of sweat) [%] | average % of reduction in the unpleasantness of the odor (T18 h, T24 h) ([1]; 2 mg/ml of sweat) [%] | average % of reduction in the odor intensity (T18 h, T24 h) ([1]; 2 mg/ml of sweat) [%] | deodorant efficacy (reduction in the intensity and unpleasantness of the odor), in words [1] | selectivity of bactericidal activity, in words (Corynebacterium xerosis; less active than Resveratrol on all strains except Corynebacterium xerosis) | MIC (Aspergillus niger) [µg/mL] | MIC (Corynebacterium xerosis) [µg/mL] | MIC (Pityrosporum ovale) [µg/mL] | MIC (Propionibacterium acnes) [µg/mL] | MIC (Staphylococcus aureus) [µg/mL] | MIC (Staphylococcus epidermis; Staphylococcus) [µg/mL] | solubility in water, in words [2] |
| --- | --- | --- | --- | --- | --- | --- | --- | --- | --- | --- | --- | --- | --- | --- | --- | --- | --- | --- | --- |
|  |  |  |  |  |  | Oc1ccc(C=Cc2ccccc2)cc1 [4-Hydroxystilbene, 4-hydroxystilbene] | −3 | −18 | −10 | −21 | highly insufficient efficacy |  |  |  |  |  |  |  |  |
| 400 (≈ 1880 µM) | 6 (≈ 28.3 µM) | > 400 | 200 (≈ 942 µM) | 200 (≈ 942 µM) | 400 (≈ 1880 µM) | Oc1cc(O)cc(C=Cc2ccccc2)c1 [Pinosylvine, 3,5-dihydroxystilbene] | −33 | −77 | −40 | −89 | very large reduction | exerted selectively |  |  |  |  |  |  |  |
| > 115 | 14 (≈ 61.3 µM) | > 115 | 29 (≈ 127 µM) | 72 (≈ 315 µM) | 72 (≈ 315 µM) | Oc1ccc(/C=C/c2cc(O)cc(O)c2)cc1 [Resveratrol, 3,5,4′-stilbene] |  |  |  |  |  |  |  |  |  |  |  |  |  |
|  |  |  |  |  |  | Oc1cc(Cl)ccc1Oc1ccc(Cl)cc1Cl [Triclosan, 2,4,4′-trichloro-2′-hydroxydiphenyl ether] | −26 | −64 | −26 | −64 |  |  | 18.1 (≈ 62.5 µM) | 2.3 (≈ 7.94 µM) | > 144 | 2.3 (≈ 7.94 µM) | 0.1 (≈ 0.345 µM) | 2.3 (≈ 7.94 µM) | insoluble |
